Measurements published in publication PMC11532494 (Nature Communications, 2024).
Where two headings read alike, the source gives them in different places.

Legend:
[1] = target: BsAcuC (Bacillus subtilis, UniProt P39067); assay type: biochemical; conditions: substrate with BsAcuC
[2] = tested on: D20-37KpHdaH; assay type: biochemical, Klebsiella pneumoniae; conditions: substrate with D20-37KpHdaH (L1-loop deletion)
[3] = tested on: KpHdaH H144A; assay type: biochemical, Klebsiella pneumoniae

Chain of BsAcuC (P39067 whole entry): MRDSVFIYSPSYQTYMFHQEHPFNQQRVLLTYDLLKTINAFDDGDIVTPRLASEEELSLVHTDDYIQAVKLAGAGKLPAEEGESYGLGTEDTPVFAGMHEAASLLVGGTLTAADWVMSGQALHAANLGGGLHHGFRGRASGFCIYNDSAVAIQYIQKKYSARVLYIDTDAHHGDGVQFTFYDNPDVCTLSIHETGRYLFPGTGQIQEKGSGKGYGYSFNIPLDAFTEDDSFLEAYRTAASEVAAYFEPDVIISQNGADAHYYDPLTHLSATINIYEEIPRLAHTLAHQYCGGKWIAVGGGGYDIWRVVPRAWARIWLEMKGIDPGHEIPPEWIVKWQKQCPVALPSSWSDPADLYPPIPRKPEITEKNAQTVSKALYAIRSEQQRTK

CC(=O)NCCCC[C@H](NC(=O)OC(C)(C)C)C(=O)Nc1ccc2c(C)cc(=O)oc2c1 [Boc-Lys(Ac)-AMC]
AMC fluorescence [1]: 768 a.u.
AMC fluorescence [2]: 1597 a.u.
AMC fluorescence ([3]; substrate with KpHdaH H144A (first of two columns with this head)): 2059 a.u.
AMC fluorescence ([3]; substrate with KpHdaH H144A (second of two columns with this head)): 31 a.u.
